Assays:
HepG2 cells = test: Growth inhibition of HepG2 cells, sulforhodamin-B protein determination after six days of incubation; format: cell-based; settings: Homo sapiens, 144 h, six days of substance incubation, sulforhodamin-B-method, read-out: IC50-value (concentration in which the cell growth was inhibited by 50%)
Description: The tumor growth inhibiting activity of the substances was determined on human tumor cells in standardized in vitro test systems. In the screening tests, the substances gave IC50-values in a concentration range of 0.1 nM to 10 μM.
HepG2 cells plated at a 20,000 cell/ml in 12-well plastic dishes. Cultivation occured in Richters IMEM-ZO nutrient medium with 5% fetal calf serum (FCS) in a tissue culture incubator with a gas mixture of 5% CO2 and 95% air at a temperature of 37° C. One day after plating, the culture medium was aspirated from the cells and replaced by fresh medium which contained the respective concentrations of the test substances. For the individual concentrations and the controls without test substances, three-fold batches were done for each. Three days after the beginning of treatment, the medium was again renewed with the test compounds. After six days of substance incubation, the test was ended and the protein amount in the individual wells was determined with the sulforhodamin-B-method (according to P. Skehan et al.: New Colorimetric Cytotoxicity Assay for Anticancer-Drug Screening. J. Natl. Cancer Inst. 82: 1107–1112, 1990). The IC50-values (defined as that concentration in which the cell growth was inhibited by 50%) was taken from the dose-response curves and given as a comparative measurement for the activity of the test compounds.

[1] = test system: freshly isolated lymphocytes from the spleen of a Swiss mouse; test: Immunosuppressing activity: vitality of freshly isolated spleen lymphocytes by flow-through cytometry after 2 days; format: cell-based; settings: Lymphocyte, 48 h, 2 days incubation, flow-through cytometer, read-out: IC50 (percentage amount of vital cells)
From the text: Many anti-tumor agents have not only a cytotoxic effect on tumor cells, but also on the blood cell system. This leads to a weakening of the immune defense, which can, in turn, be specifically employed to suppress the rejection reaction after an organ transplantation for example. Therefore, a use of the main compounds, optionally in combination with other compounds effective for these indications is suitable in diseases such as psoriasis or autoimmune diseases. In order to test the possibility for a therapeutic use in illnesses of this type, the substance activity was tested on freshly isolated lymphocytes as follows:
The spleen of a Swiss mouse served as a lymphocyte source. The lymphocyte population was isolated from the spleen cell suspension over a ficoll gradient and taken up in IMEM-ZO culture medium with 0,1% dextran 70,000 and 2% fetal calf serum. […] Subsequently, 10,000 cells per each sample were measured on a flow-through cytometer and the percentage amount of vital cells in the population was determined. By means of the dose-response curves, IC50-values were calculated which were also employed in the following Tables for the characterization of the individual substances: […]

| melting point [°C] | IC50 (HepG2 cells) [nM] | IC50 [1] [nM] | Structure (SMILES) |
| --- | --- | --- | --- |
| 164 to 166 | – | – | O=C(C=CC=Cc1cccnc1)NCCCCC1CCN(C(c2ccccc2)c2ccccc2)CC1 [compound 70, N-[4-(1-diphenylmethyl-piperidin-4-yl)-butyl]-5-(pyridin-3-yl)-2,4-pentadienoic acid amide] |
| 89 to 91 | – | – | O=C(C=Cc1cccnc1)NCCCCC1CCN(C2c3ccccc3CSc3ccccc32)CC1 (stereo not shown) [compound 136, N-{4-[1-(6,11-dihydro-dibenzo [b,e]thiepin-11-yl)-piperidin-4-yl]-butyl}-3-(pyridin-3-yl)-acrylamide] |
| 161 | – | – | O=C(C=Cc1cccnc1)NCCCCC1CCN(C(=O)C(c2ccccc2)c2ccccc2)CC1 [compound 150, N-[4-(1-diphenylacetyl-piperidin-4-yl)-butyl]-3-(pyridin-3-yl)-acrylamide] |
| – | 0.5 | 3 | O=C(C=Cc1cccnc1)NCCCCC1CCN(C(=O)c2ccccc2)CC1 [compound 159, N-[4-(1-benzoylpiperidin-4-yl)-butyl]-3-(pyridin-3-yl)-acrylamide] |
| 198 to 200 | – | – | O=C(C=Cc1cccnc1)NCCCCC1CCN(C(=O)Nc2cccc3ccccc23)CC1 [compound 195, N-{4-[1-(1-naphthylaminocarbonyl)-piperidin-4-yl]-butyl}-3-(pyridin-3-yl)-acrylamide] |
| 85 to 87 | – | – | O=C(C=Cc1cccnc1)NCCCCC1CCN(S(=O)(=O)c2ccc3ccccc3c2)CC1 [compound 219, N-{4-[1-(2-naphthyl-sulfonyl)-piperidin-4-yl]-butyl}-3-(pyridin-3-yl)-acrylamide] |

Reference: patent US7241745B2, “Pyridyl alkene and pyridyl alkine acid amides as cytostatics and immunosupressives” (Astellas Pharma GmbH, priority 1996, dated 2007)
